We go through three compounds from patent US12297197B2, “Pyrazolopyridine compound as RET inhibitor and application thereof” (GUANGZHOU BAIYUNSHAN PHARMACEUTICAL HOLDINGS CO., LTD. …, priority 2019, dated 2025).

For one series, the target named is RET kinase (Homo sapiens, UniProt P07949). Put plainly: In-vitro enzyme activity test, RET kinase. In kind it is biochemical. Particulars: ATP 20 μM; 10 concentrations 3 μM to 0.152 nM. The method, then: (§1) The enzyme activity was detected by a Z′-LYTE™ kinase test, and inhibitory effects of the compounds onRET and RET (V804M) kinases were evaluated with an ICs value of each compound as an index.
(§2) The compounds used for RET and RET (V804M) kinase tests were diluted 3-fold, in 10 concentration gradients ranging from 3 μM to 0.152 nM; and the content of DMSO in detection reaction was 1%.
(§3) Basic reaction buffer, 20 mM 4-(2-hydroxyethyl)piperazine-1-ethanesulfonic acid (Hepes) buffer (pH 7.5), 10 mM MgCl2. 1 mM 1,2-bis[2-[bis(carboxymethyl)amino]ethoxy]ethane (EGTA), 0.02% polyoxyethylene lauryl ether (Brij35), 0.02 mg/mL bovine serum albumin, 0.1 mM of Na3VO4, 2 mM dithiothreitol (DTT) and 1% DMSO.
(§4) The compounds to be tested were dissolved in a 100% DMSO system to be diluted to 10 mM for further use. The solution was diluted by using Integra Viaflo Assist.
(§5) Test conditions: concentrations of RET kinase, peptide substrate CHKtide and adenosine triphosphate (ATP) were […], 1000 μM and 20 μM, respectively, and concentrations of RET (V804M) kinase, substrate peptide and ATP were […], 1000 μM and 30 μM, respectively.
(§6) Reaction process: compound solutions of different concentrations were added to a kinase/peptide solution prepared according to the test conditions, the obtained solution was incubated at room temperature for 20 minutes, and then 33P-ATP of corresponding concentrations were added, and the obtained solution was incubated at room temperature for 120 minutes. The radioactivity was detected by a filter-binding method.
(§7) The reaction was terminated by adding phosphoric acid (concentration, 0.5%) into a kinase reaction solution, and plate reading was carried out with an Envision instrument.
(§8) Data were converted into phosphorylation rate and inhibition rate, and the parametric curve was fitted by using GraphPad Software to obtain IC50 data of the compounds.

Series [1] concerns Ba/F3-CCDC6-RET cell allograft tumor model. The series is described as follows: Tumor growth inhibition (TGI) in Ba/F3-CCDC6-RET cell allograft tumor model. In kind it is in vivo, BALB/c nude female mouse. The method, then: Ba/F3-CCDC6-RET cell line was cultured in a 1640 medium (Biological Industries)+10% fetal bovine serum (BI)+1% Penicillin Streptomycin solution (Coring, USA) at 37° C. in a 5% CO2 incubator, with passage treatment twice a week Cells were collected when the cell saturation was 80%-90%, subjected to cell counting, and then inoculated subcutaneously into the right armpit of each BALB/c nude female mouse (6-8 weeks old). After inoculation, tumor growth was observed day by day. When the average tumor volume reached 165.77 mm^3, mice were randomly divided into groups according to the tumor volume, with 6 mice in each group, and then the mice were administrated with drug.
Health status and death situation of the mice were checked every day. In addition, the mice were examined regularly, including tumor growth, activity ability, diet, weight, eyes, hair and other abnormal behaviors, and tumor volume and weight were measured twice a week (on Tuesday and Friday).
Inhibitory effects of the compounds on tumor growth were evaluated according to the relationship between tumor volume and time. The tumor volume was measured by a vernier caliper, with the formula being TV=0.5a×b^2, wherein “a” was the long diameter of the tumor and “b” was the short diameter of the tumor. TGI was calculated by the difference between the median tumor volume of mice in the solvent group and the median tumor volume of mice in the drug group, and expressed as the percentage of median tumor volume in the solvent control group.
TGI was calculated by the following formula: TGI(TGI(%)=[1−(T23−T0)/(V23−V0)]×100)
Data were expressed by Means±Standard Error (Mean±SE), unless otherwise stated. The one way ANOVA test was used to compare whether the difference between the tumor volume in the treatment group and the tumor volume in the control group is statistically significant. P<0.05 was considered as statistically significant. The 5% DMSO+10% polyoxyl 15 hydroxystearate (Solutol)+85% 120 was used as the negative control.

The nature of series [2]: Pharmacokinetic evaluation in mice (IV and PO). Format: in vivo. As to conditions: mouse, plasma, female Balb/c mice; for bioavailability: peros (PO) 2 mg/kg vs IV 0.2 mg/kg, read-out: F (bioavailability). The method, then:
Experiment process: 0.1 mg/ml of the clear solution of each test compound in the corresponding solvents (as shown in Table 9) was injected into female Balb/c mice (fasting overnight. 7-9 weeks old) via the tail vein at a dose of […]. Blood samples ([…]) were collected from the jugular vein or the tail vein at the following time points: 0.0833 hour, 0.25 hour, 0.5 hour, 1.0 hour, 2.0 hours, 4.0 hours. 8.0 hours and 24 hours after intravenous administration. 0.2 mg/ml of the test compounds suspended in the corresponding solvents (as shown in Table 9) were given to the female Balb/c mice (fasting overnight. 7-9 weeks old) by gavage at a dose of 2 mg/kg. Blood samples (30 μL) were collected from the jugular vein or the tail vein of the female Balb/c mice at the following time points: 0.0833 hour, 0.25 hour, 0.5 hour, 1.0 hour, 2.0 hours, 4.0 hours, 6.0 hours, 8.0 hours and 24 hours after oral administration. The blood samples were placed in anticoagulant tubes containing EDTA-K2, and centrifuged to separate plasma. The plasma concentration was determined by LC-MS/MS, and a WinNonlin™ Version 6.3 pharmacokinetic software (Pharsight, Mountain View, CA) was used to calculate related pharmacokinetic parameters by a linear-log trapezoidal method in a non-compartmental model. [table]

Another series has as its target RET (V804M) kinase (Homo sapiens, UniProt P07949, V804M). The series is described as follows: In-vitro enzyme activity test, RET (V804M) kinase. In kind it is biochemical. Particulars: ATP 30 μM; 10 concentrations 3 μM to 0.152 nM. The protocol: as §1, §2, §3, §4, §5, §6, §7, §8
The mark [3] stands for this setting: 10 mg/kg (D0-D13)/5 mg/kg (D14-D17)/2,5 mg/kg (D18-D28) BID.

Sequence of RET kinase (P07949 29-1114): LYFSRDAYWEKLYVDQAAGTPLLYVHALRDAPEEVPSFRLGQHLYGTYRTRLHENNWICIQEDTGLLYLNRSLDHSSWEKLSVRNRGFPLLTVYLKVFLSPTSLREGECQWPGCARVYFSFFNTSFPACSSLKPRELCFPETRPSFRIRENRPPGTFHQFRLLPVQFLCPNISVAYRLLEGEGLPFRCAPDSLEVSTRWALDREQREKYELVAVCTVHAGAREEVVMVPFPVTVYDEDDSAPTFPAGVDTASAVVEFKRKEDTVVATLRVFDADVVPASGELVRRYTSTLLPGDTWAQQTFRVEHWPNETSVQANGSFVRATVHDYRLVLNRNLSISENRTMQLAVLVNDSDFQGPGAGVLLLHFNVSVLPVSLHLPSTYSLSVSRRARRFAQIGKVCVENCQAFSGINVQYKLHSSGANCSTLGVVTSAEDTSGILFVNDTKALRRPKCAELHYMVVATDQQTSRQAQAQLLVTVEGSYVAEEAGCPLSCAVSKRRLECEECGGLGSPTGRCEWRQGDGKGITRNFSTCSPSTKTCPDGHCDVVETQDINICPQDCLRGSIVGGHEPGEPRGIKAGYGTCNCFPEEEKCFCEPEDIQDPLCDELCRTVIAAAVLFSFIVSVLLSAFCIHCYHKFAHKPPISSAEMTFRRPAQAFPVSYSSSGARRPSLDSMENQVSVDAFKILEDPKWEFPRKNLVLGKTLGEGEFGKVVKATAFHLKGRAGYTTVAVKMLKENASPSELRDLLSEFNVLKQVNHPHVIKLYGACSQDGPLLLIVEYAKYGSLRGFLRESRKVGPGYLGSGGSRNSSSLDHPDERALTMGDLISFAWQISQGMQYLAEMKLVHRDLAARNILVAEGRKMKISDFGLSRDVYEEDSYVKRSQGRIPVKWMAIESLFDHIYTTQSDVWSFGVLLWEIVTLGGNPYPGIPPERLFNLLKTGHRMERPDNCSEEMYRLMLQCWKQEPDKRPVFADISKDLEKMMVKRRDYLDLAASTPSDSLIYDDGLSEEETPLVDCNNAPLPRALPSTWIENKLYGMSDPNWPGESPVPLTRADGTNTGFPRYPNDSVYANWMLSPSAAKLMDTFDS
Sequence of RET (V804M) kinase (P07949 29-1114 V804M): as the sequence (P07949 29-1114) above, with V776M counted along it

Turning to `COc1ccc(CN2C3CC2CN(c2ccc(-c4cc(N5CCN(C)CC5)cn5ncc(C#N)c45)cn2)C3)cn1` [Trifluoroacetate of compound 18], the IC50 (as a rule, the midpoint of a concentration-inhibition curve) against RET kinase came out at 0.46 nM. Also, the “TGI% (tumor volume at Day 23 after drug administration)” value (“TGI%” for short) in series [1] (10 mg/kg (D0-D17)/5 mg/kg (D18-D28) QD) worked out at 91%.

As to `COc1ccc(CN2C3CC2CN(c2cnc(-c4cc(C5=CCOCC5)cn5ncc(C#N)c45)cn2)C3)cn1` [Trifluoroacetate of compound 30], in series [2], the bioavailability – broadly, dose-corrected exposure relative to a reference, in per cent – came out at 96.4%. Moreover, the “TGI%” value in series [1] (setting [3]) is given as 98%.

Compound `COc1ccc(CN2C3CC2CN(c2ccc(-c4cc(N5CCC(F)(F)C5)cn5ncc(C#N)c45)cn2)C3)cn1` [Trifluoroacetate of compound 69] displayed an IC50 at RET kinase of 1.44 nM. At RET (V804M) kinase, this compound had an IC50 of 1.57 nM. Further, the AUC(0-t) (as a rule, exposure summed from dosing to a finite time, without extrapolation to infinity) in series [2] (intravenous injection (IV) 0.2 mg/kg) came to 3.87 µM·h. In series [2] (intravenous injection (IV) 0.2 mg/kg, read-out: Cl (plasma clearance)), the clearance is 1.3 mL/min/kg. Further, the half-life in series [2] (intravenous injection (IV) 0.2 mg/kg, read-out: T1/2 (half-life of elimination) (converted)) is 3.6 h. In series [2] (intravenous injection (IV) 0.2 mg/kg, read-out: Vdds (volume of distribution at steady state)), the Vd was found to be 0.42 L/kg. For the same compound, the bioavailability in series [2] stood at 74.7%. Besides, in series [2] (peros (PO) 2 mg/kg), the AUC(0-t) turned out to be 29.6 µM·h; the highest level (Cmax) was 3.63 µM; the Tmax – broadly, the time at which the peak concentration occurs – turned out to be 4 h. Further, the “TGI%” value in series [1] (setting [3]) is reported as 99%.
